From patent US3962316A, “Carbamate” (priority 1972, dated 1976)

Key:
Assay type in all cases: in vivo
[1] = tested on: houseflies (Musca domestica); settings: after 4 hours
Description: 1 mm^3 of an acetonic solution of the active ingredients is applied to the ventral abdomen of houseflies (Musca domestica) under slight CO2 narcosis.

[2] = tested on: oriental cockroaches (Blatta orientalis); assay: Contact with treated inner surfaces of 1 liter glass beakers, adult oriental cockroaches
Protocol: Adult oriental cockroaches (Blatta orientalis) are placed in 1 liter glass beakers whose inner surfaces have been treated with acetonic solutions of the active ingredients. The action is determined after 48 hours.

[3] = tested on: caterpillars of the cabbage moth (Plutella maculipennis); assay: Contact action and effect of ingested food on caterpillars of the cabbage moth (dipped cabbage leaves); settings: for Mortality (in words): 0.1% by weight of ingredient in aqueous emulsion
Description: Contact action and effect of ingested food on caterpillars of the cabbage moth (Plutella maculipennis). Young cabbage leaves are dipped for 3 seconds into aqueous emulsions of the active ingredients. After they have dried they are put into Petri dishes and caterpillars of the cabbage moth are placed on them.

CNC(=O)Oc1ccccc1OC(CCl)OC (stereo not drawn) [Active ingredient 1, o-(α-methoxy-β-chloro)-ethoxyphenyl-N-methylcarbamate]
LD50 [1]: 0.41 γ/fly | mortality at 0.05 mg ([2]; 48 h): 100% | mortality at 0.05 % ([3]; Plutella): 100%

CNC(=O)Oc1ccccc1OC(C)C [III]
LD50 [1]: 1.5 γ/fly | Mortality (in words) [3]: ineffective

CNC(=O)Oc1cccc(C)c1 [II]
Effect on flies (LD50 column, in words) ([1]; 10.0 γ/fly): ineffective | mortality at 0.5 mg ([2]; 0.5 mg/breaker, after 48 hours): 100% | Mortality (in words) [3]: ineffective

CNC(=O)Oc1cccc2ccccc12 [I]
mortality at 0.2 mg ([2]; 48 h): 100% | mortality at 0.1 % ([3]; Plutella): 100%

CCOC(CCl)Oc1ccccc1OC(=O)NC (stereo not drawn) [compound 6]
mortality at 0.02 % ([3]; Plutella): 100%

o-(α-2-chloroethoxy)-ethoxyphenyl-N-methylcarbamate [Example 2]
LD50 [1]: 0.3 γ/fly
